Legend:
[1] = system: HCT-116 human colon carcinoma cells; test: Cytotoxic activity on culture of human colon carcinoma cells HCT-116 (Alamar Blue); assay type: cell-based; conditions: HCT-116 cells, 72 hours after addition of compounds, Alamar Blue viability
Experimental: Evaluation of Cytotoxic Activity on Culture of Human Colon Carcinoma Cells HCT-116
Human colon carcinoma cells HCT-116 were seeded onto 96-well plates in RPMI1640 culture medium with added 10% FBS and 2 mM glutamine. 24 hours after seeding, the compounds at different concentrations are added. All the compounds are diluted in DMSO such that the final concentrations on the cultures is no greater than 0.5%. 72 hours after addition of the compounds, cell viability is measured by means of the dye Alamar Blue. The result is expressed as percent survival of the treated relative to the control, treated with carrier alone.

[2] = system: histone deacetylase (HDAC), HeLa nuclear extract; test: Deacetylase activity on nuclear extract of HeLa cells (Fluor de Lys kit); assay type: biochemical, human; conditions: 0.1 μM compound, percent inhibition relative to control without inhibitor
Experimental: The activity of the compounds as histone deacetylase (HDAC) inhibitors was measured using an in vitro acetylation assay. The compounds were then evaluated as inhibitors of proliferation of human tumor cell cultures.
Deacetylase Activity on Nuclear Extract of Hela Cells (Human Cervical Cancer Cell)
The assay (Fluor de Lys™ kit, BioMol) is divided into two steps: in the first step the substrate which comprises an acetylated lysine residue is reacted with the nuclear extract (HeLa) containing the enzymatic activity in the presence and absence of inhibitors. In the second step a fluorogenic reagent is added which highlights the deacetylated residues. A reduction in fluorescence is obtained where there has been inhibition of the deacetylase activity.

Q: For `Nc1cccc2c1Nc1ccccc1S(=O)(=O)N2CCCCCC(=O)NO` [Example 32, 6-(4-Amino-10,10-dioxo-5,10-dihydro-10λ^6-thia-5,11-diaza-dibenzo[a,d]cyclohepten-11-yl)-hexanoic acid hydroxyamide], which IC50 [1] is on record?
A: 2000 nM

Q: What about the “% inhib at 0.1 μM” value [2] of the same molecule?
A: 47%

Q: What does the source list for `COc1ccc2c(c1)Nc1ccc(N(C)C)cc1S(=O)(=O)N2CCCCCC(=O)NO` [Example 27, 6-(8-Dimethylamino-3-methoxy-10,10-dioxo-5,10-dihydro-10λ^6-thia-5,11-diaza-dibenzo[a,d]cyclohepten-11-yl)-hexanoic acid hydroxyamide]?
A: IC50 [1]: 400 nM; % inhib at 0.1 μM [2]: 63%

Q: For `O=C(CCCCCN1C(=O)c2ccccc2S(=O)(=O)c2ccc(Cl)cc21)NO` [Example 10, 6-(8-Chloro-5,5,11-trioxo-5,11-dihydro-5λ^6-dibenzo[b,f][1,4]thiazepin-10-yl)-hexanoic acid hydroxyamide], which IC50 [1] is on record?
A: 30 nM

Q: What about the “% inhib at 0.1 μM” value [2] of the same molecule?
A: 77%

Q: `O=C(CCCCCN1C(=O)c2ccccc2Oc2ccc(Cl)cc21)NO` [Example 14, 6-(8-Chloro-11-oxo-11H-dibenzo[b,f][1,4]oxazepin-10-yl)-hexanoic acid hydroxyamide] was tested. Which IC50 [1] did it give?
A: 200 nM

Q: What about the “% inhib at 0.1 μM” value [2] of the same molecule?
A: 65%

Q: Which results are given for `CN(C)c1ccc2c(c1)S(=O)(=O)N(CCCCCC(=O)NO)c1ccccc1N2` [Example 20, 6-(8-Dimethylamino-10,10-dioxo-5,10-dihydro-10λ^6-thia-5,11-diaza-dibenzo[a,d]cyclohepten-11-yl)-hexanoic acid hydroxyamide]?
A: IC50 [1]: 390 nM; % inhib at 0.1 μM [2]: 40%

Q: What does the source list for `O=C(CCCCCN1c2cc(F)ccc2Nc2ccccc2S1(=O)=O)NO` [Example 25, 6-(2-Fluoro-10,10-dioxo-5,10-dihydro-10λ^6-thia-5,11-diaza-dibenzo[a,d]cyclohepten-11-yl)-hexanoic acid hydroxyamide]?
A: IC50 [1]: 1500 nM; % inhib at 0.1 μM [2]: 42%

Q: What does the source list for `COc1ccc2c(c1)N(CCCCCC(=O)NO)C(=O)c1ccccc1[S+]2[O-]` (stereo not shown) [Example 11, 6-(8-Methoxy-5,11-dioxo-5,11-dihydro-5λ^4-dibenzo[b,f][1,4]thiazepin-10-yl)-hexanoic acid hydroxyamide]?
A: IC50 [1]: 50 nM; % inhib at 0.1 μM [2]: 73%

Q: What does the source list for `COc1ccc2c(c1)N(CCCCCC(=O)NO)C(=O)c1ccccc1S2(=O)=O` [Example 9, 6-(8-Methoxy-5,5,11-trioxo-5,11-dihydro-5λ^6-dibenzo[b,f][1,4]thiazepin-10-yl)-hexanoic acid hydroxyamide]?
A: IC50 [1]: 40 nM; % inhib at 0.1 μM [2]: 83%

Q: Which IC50 [1] does the source give for `O=C(CCCCCN1c2ccccc2Oc2ccccc2S1(=O)=O)NO` [Example 23, 6-(10,10-Dioxo-10H-5-oxa-10λ^6-thia-11-aza-dibenzo[a,d]cyclohepten-11-yl)-hexanoic acid hydroxyamide] here?
A: 190 nM

Q: What about the “% inhib at 0.1 μM” value [2] of the same molecule?
A: 48%

Q: How did the IC50 [1] turn out when `COc1ccc2c(c1)Nc1ccccc1S(=O)(=O)N2CCCCCC(=O)NO` [Example 21, 6-(3-Methoxy-10,10-dioxo-5,10-dihydro-10λ^6-thia-5,11-diaza-dibenzo[a,d]cyclohepten-11-yl)-hexanoic acid hydroxyamide] was run?
A: 290 nM

Q: With `O=C(CCCCCN1C(=O)c2ccccc2S(=O)(=O)c2ccccc21)NO` [Example 8, 6-(5,5,11-Trioxo-5,11-dihydro-5λ^6-dibenzo[b,f][1,4]thiazepin-10-yl)-hexanoic acid hydroxyamide] as the molecule, how does the IC50 [1] read?
A: 105 nM

Q: And the “% inhib at 0.1 μM” value [2]?
A: 73%

Q: `COc1ccc2c(c1)N(CCCCCC(=O)NO)S(=O)(=O)c1ccccc1N2` [Example 29, 6-(2-Methoxy-10,10-dioxo-5,10-dihydro-10λ^6-thia-5,11-diaza-dibenzo[a,d]cyclohepten-11-yl)-hexanoic acid hydroxyamide] was tested. Which IC50 [1] did it give?
A: 900 nM

Q: And the “% inhib at 0.1 μM” value [2]?
A: 54%

Q: Which results are given for `O=C(CCCCCCN1C(=O)c2ccccc2Oc2ccccc21)NO` [Example 15, 7-(11-Oxo-11H-dibenzo[b,f][1,4]oxazepin-10-yl)-heptanoic acid hydroxyamide]?
A: IC50 [1]: 200 nM; % inhib at 0.1 μM [2]: 62%

Q: `O=C(CCCCCN1C(=O)c2cscc2Nc2cc(Cl)c(Cl)cc21)NO` [Example 17, 6-(6,7-Dichloro-10-oxo-4H,10H-2-thia-4,9-diaza-benzo[f]azulen-9-yl)-hexanoic acid hydroxyamide] was tested. Which IC50 [1] did it give?
A: 800 nM

Q: What does the source list for `O=C(CCCCCN1C(=O)c2ccccc2Oc2ccccc21)NO` [Example 12, 6-(11-Oxo-11H-dibenzo[b,f][1,4]oxazepin-10-yl)-hexanoic acid hydroxyamide]?
A: IC50 [1]: 640 nM; % inhib at 0.1 μM [2]: 66%

Q: What does the source list for `CN(C)c1ccc2c(c1)S(=O)(=O)N(CCCCCC(=O)NO)c1ccc(O)cc1N2` [Example 26, 6-(8-Dimethylamino-3-hydroxy-10,10-dioxo-5,10-dihydro-10λ^6-thia-5,11-diaza-dibenzo[a,d]cyclohepten-11-yl)-hexanoic acid hydroxyamide]?
A: IC50 [1]: 1000 nM; % inhib at 0.1 μM [2]: 66%

Q: What does the source list for `COc1ccc2c(c1)N(CCCCCC(=O)NO)C(=O)c1ccccc1O2` [Example 13, 6-(8-Methoxy-11-oxo-11H-dibenzo[b,f][1,4]oxazepin-10-yl)-hexanoic acid hydroxyamide]?
A: IC50 [1]: 310 nM; % inhib at 0.1 μM [2]: 73%

Q: How did the IC50 [1] turn out when `COc1ccc2c(c1)Nc1ccccc1N(CCCCCC(=O)NO)S2(=O)=O` [Example 30, 6-(7-Methoxy-10,10-dioxo-5,10-dihydro-10λ^6-thia-5,11-diaza-dibenzo[a,d]cyclohepten-11-yl)-hexanoic acid hydroxyamide] was run?
A: 390 nM

Q: What about the “% inhib at 0.1 μM” value [2] of the same molecule?
A: 65%
